In patent US20240228488A1 (TAKEDA PHARMACEUTICAL COMPANY LIMITED, priority 2021, published 2024) one finds EC50 data, which are given here for 22 compounds.

Where only a bound is given, the exact number is not on record here.

The target in the experiment is human activated kallikrein enzyme (Homo sapiens, UniProt P03952). Put plainly: Plasma kallikrein inhibition, fluorogenic PFR-AMC substrate, 500 pM activated kallikrein format. The class given is biochemical. The following applies: 500 pM activated kallikrein, 300 uM PFR-AMC, 30 min preincubation, 10 min reaction; read-out: Primary Dose Response Assay: Average EC50. The method, boiled down: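 Fluorescence (ex 380/em 460 nm) is read after 10 min of 300 uM PFR-AMC turnover by 500 pM enzyme at RT. Compounds sit with enzyme for 30 min beforehand. Buffer is Tris (pH 7.5) with EDTA, NaCl, PEG-400 and Triton X-100; EC50 values are banded.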
human activated kallikrein enzyme, sequence (P03952 391-638 limits assumed): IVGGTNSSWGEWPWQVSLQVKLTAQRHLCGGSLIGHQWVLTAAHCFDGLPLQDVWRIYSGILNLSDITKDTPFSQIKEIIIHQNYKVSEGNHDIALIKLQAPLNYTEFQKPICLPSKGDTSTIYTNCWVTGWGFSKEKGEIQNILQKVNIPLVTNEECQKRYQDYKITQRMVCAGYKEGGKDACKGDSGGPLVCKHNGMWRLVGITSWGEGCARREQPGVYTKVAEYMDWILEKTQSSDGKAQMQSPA
human activated kallikrein enzyme, sequence (P03952 20-390 partner limits assumed): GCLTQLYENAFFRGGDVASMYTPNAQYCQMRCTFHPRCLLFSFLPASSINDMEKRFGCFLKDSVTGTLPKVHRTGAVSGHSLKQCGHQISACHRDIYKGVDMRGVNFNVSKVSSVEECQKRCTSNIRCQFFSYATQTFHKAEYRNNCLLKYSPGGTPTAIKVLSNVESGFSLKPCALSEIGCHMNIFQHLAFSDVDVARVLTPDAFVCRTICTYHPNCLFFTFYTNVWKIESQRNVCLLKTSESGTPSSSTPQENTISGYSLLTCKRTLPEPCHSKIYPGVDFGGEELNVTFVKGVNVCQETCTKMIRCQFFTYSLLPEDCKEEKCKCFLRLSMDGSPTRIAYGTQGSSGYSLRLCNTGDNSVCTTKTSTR
As to `CC(NC(=O)[C@H]1C[C@@H]1c1cccc(Cl)c1)c1cn(Cc2cn3cc(C4CC4)ccc3n2)nn1` (single isomer, unassigned) [Example 589, rac-(1S*,2S*)-2-(3-chlorophenyl)-N-(1-(1-((6-cyclopropylimidazo[1,2-a]pyridin-2-yl)methyl)-1H-1,2,3-triazol-4-yl)ethyl)cyclopropane-1-carboxamide], the EC50 (in general, the concentration giving half of the maximal effect) is 10 to 100 nM.

Consider `Cc1ccnc([C@H]2C[C@@H]2C(=O)Nc2cc(N[C@H](C)c3cn4cc(C5CC5)cc(N5CC(=O)N(C)C5=O)c4n3)nc(N(C)C)n2)n1` [Example 441, (1S,2S)-N-(6-(((R)-1-(6-cyclopropyl-8-(3-methyl-2,4-dioxoimidazolidin-1-yl)imidazo[1,2-a]pyridin-2-yl)ethyl)amino)-2-(dimethylamino)pyrimidin-4-yl)-2-(4-methylpyrimidin-2-yl)cyclopropane-1-carboxamide], for which the 50% effective concentration (EC50) is less than 1 nM. Then `O=C(Nc1cc(NCc2cn3cc(C4CC4)ccc3n2)ccn1)[C@@H]1C[C@]12CCc1ccc(Cl)cc12` (single isomer, unassigned) [Example I-273, rac-(1S*,2S*)-6′-chloro-N-(4-(((6-cyclopropylimidazo[1,2-a]pyridin-2-yl)methyl)amino)pyridin-2-yl)-2′,3′-dihydrospiro[cyclopropane-1,1′-indene]-2-carboxamide], with less than 1 nM. The value for `O=C(Nc1cc(NCc2nc3ccc(C4CC4)cn3c2F)ncn1)[C@H]1C[C@@H]1c1cccc(Cl)c1` [Example I-152, (1S,2S)-2-(3-chlorophenyl)-N-(6-(((6-cyclopropyl-3-fluoroimidazo[1,2-a]pyridin-2-yl)methyl)amino)pyrimidin-4-yl)cyclopropane-1-carboxamide] was 10 to 100 nM. Regarding `Cc1ccnc([C@H]2C[C@@H]2C(=O)Nc2nncc(N(C)Cc3cn4cc(C5CC5)cc(N5CC(=O)N(C)C5=O)c4n3)n2)n1` [Example 668, (1S,2S)—N-(5-(((6-cyclopropyl-8-(3-methyl-2,4-dioxoimidazolidin-1-yl)imidazo[1,2-a]pyridin-2-yl)methyl)(methyl)amino)-1,2,4-triazin-3-yl)-2-(4-methylpyrimidin-2-yl)cyclopropane-1-carboxamide], the EC50 was less than 1 nM. The value for `O=C([C@H]1C[C@@H]1c1cccc(Cl)c1)N(O)c1cc(NCc2cn3cc(C4CC4)ccc3n2)ncn1` [Example I-175, (1S,2S)-2-(3-chlorophenyl)-N-(6-(((6-cyclopropylimidazo[1,2-a]pyridin-2-yl)methyl)amino)pyrimidin-4-yl)-N-hydroxycyclopropane-1-carboxamide] was greater than 6000 nM; that for `O=C(Nc1cc(NCc2cn3cc(C4CC4)cc(N4CC5(C4)CN(C4CC4)C5)c3n2)ncn1)[C@H]1C[C@@H]1c1cccc(Cl)c1` [Example I-12, (1S,2S)-2-(3-chlorophenyl)-N-(6-(((6-cyclopropyl-8-(6-cyclopropyl-2,6-diazaspiro[3.3]heptan-2-yl)imidazo[1,2-a]pyridin-2-yl)methyl)amino)pyrimidin-4-yl)cyclopropane-1-scarboxamide] was 1 to 10 nM; that for `O=C(Nc1cc(OCc2cn3cc(C4CC4)ccc3n2)cnn1)[C@H]1C[C@@H]1c1cccc(Cl)c1` (racemic) [Example 103, rac-(1S*,2S*)-2-(3-chlorophenyl)-N-(5-((6-cyclopropylimidazo[1,2-a]pyridin-2-yl)methoxy)pyridazin-3-yl)cyclopropane-1-carboxamide] was 10 to 100 nM. The value for `O=C(Nc1cc(Cc2cn3cc(C4CC4)ccc3n2)ncn1)[C@H]1C[C@@H]1c1cccc(Cl)c1` (racemic) [Example 587, rac-(1S*,2S*)-2-(3-chlorophenyl)-N-(6-((6-cyclopropylimidazo[1,2-a]pyridin-2-yl)methyl)pyrimidin-4-yl)cyclopropane-1-carboxamide] was 100 to 1000 nM.

On to `O=C(Nc1cc(NCc2cn3cc(C4CC4)cc(CN4CCOCC4)c3n2)ncn1)[C@H]1C[C@@H]1c1cccc(Cl)c1` (racemic) [Example 73, rac-(1S*,2S*)-2-(3-chlorophenyl)-N-(6-(((6-cyclopropyl-8-(morpholinomethyl)imidazo[1,2-a]pyridin-2-yl)methyl)amino)pyrimidin-4-yl)cyclopropane-1-carboxamide], for which the EC50 is 1 to 10 nM. With `COc1ccc(CN2C(=O)CN(c3cc(C4CC4)cn4cc(CNc5cc(NC(=O)[C@H]6C[C@@H]6c6cccc(Cl)c6)ncn5)nc34)C2=O)cc1` [Example 397, (1S,2S)-2-(3-chlorophenyl)-N-(6-(((6-cyclopropyl-8-(3-(4-methoxybenzyl)-2,4-dioxoimidazolidin-1-yl)imidazo[1,2-a]pyridin-2-yl)methyl)amino)pyrimidin-4-yl)cyclopropane-1-carboxamide], the EC50 lay in the range of 10 to 100 nM. Then `O=C(Nc1cc(NCc2cn3cc(C4CC4)cc(N4C[C@H](O)CC4=O)c3n2)ncn1)[C@H]1C[C@@H]1c1cccc(Cl)c1` (relative stereo) [Example 65, rac-(1S*,2S*)-2-(3-chlorophenyl)-N-(6-(((6-cyclopropyl-8-((R)-4-hydroxy-2-oxopyrrolidin-1-yl)imidazo[1,2-a]pyridin-2-yl)methyl)amino)pyrimidin-4-yl)cyclopropane-1-carboxamide], with 1 to 10 nM; and `O=C(Nc1cc(N2C[C@H](O)C[C@@H]2c2cn3cc(C4CC4)ccc3n2)ncn1)[C@H]1C[C@@H]1c1cccc(Cl)c1` [Example I-250, (1S,2S)-2-(3-chlorophenyl)-N-(6-((2R,4R)-2-(6-cyclopropylimidazo[1,2-a]pyridin-2-yl)-4-hydroxypyrrolidin-1-yl)pyrimidin-4-yl)cyclopropane-1-carboxamide], with greater than 6000 nM.

Turning to `Cc1ccnc([C@H]2C[C@@H]2C(=O)Nc2nncc(OCc3cn4cc(C5CC5)cc(N5CC(=O)N(C)C5=O)c4n3)n2)n1` [Example 671, (1S,2S)—N-(5-((6-cyclopropyl-8-(3-methyl-2,4-dioxoimidazolidin-1-yl)imidazo[1,2-a]pyridin-2-yl)methoxy)-1,2,4-triazin-3-yl)-2-(4-methylpyrimidin-2-yl)cyclopropane-1-carboxamide], the half-maximal effective concentration (EC50) is less than 1 nM.

On to `O=C(Nc1cc(NCc2cn3cc(C4CC4)cc(N4CCN5CC(F)(F)CC5C4)c3n2)ccn1)[C@H]1C[C@@H]1c1cccc(Cl)c1` (stereo partly drawn) [Example I-230, (1S,2S)-2-(3-chlorophenyl)-N-(4-(((6-cyclopropyl-8-(7,7-difluorohexahydropyrrolo[1,2-a]pyrazin-2(1H)-yl)imidazo[1,2-a]pyridin-2-yl)methyl)amino)pyridin-2-yl)cyclopropane-1-carboxamide], for which the 50% effective concentration (EC50) lay in the range of 1 to 10 nM.

As to `Cc1ccnc([C@H]2C[C@@H]2C(=O)Nc2cc(NCc3cn4cc(C5CC5)cc(N5CC(=O)N(C)C5=O)c4n3)n3ncnc3n2)n1` (racemic) [Example 624, rac-(1S*,2S*)—N-(7-(((6-cyclopropyl-8-(3-methyl-2,4-dioxoimidazolidin-1-yl)imidazo[1,2-a]pyridin-2-yl)methyl)amino)-[1,2,4]triazolo[1,5-a]pyrimidin-5-yl)-2-(4-methylpyrimidin-2-yl)cyclopropane-1-carboxamide], the half-maximal effective concentration (EC50) was less than 1 nM.

Regarding `CN1C(=O)CN(c2cc(C3CC3)cn3cc(CNc4cc(NC(=O)[C@H]5C[C@@H]5c5nccc(C(F)(F)F)n5)ncn4)nc23)C1=O` (racemic) [Example I-165, rac-(1S*,2S*)-N-(6-(((6-cyclopropyl-8-(3-methyl-2,4-dioxoimidazolidin-1-yl)imidazo[1,2-a]pyridin-2-yl)methyl)amino)pyrimidin-4-yl)-2-(4-(trifluoromethyl)pyrimidin-2-yl)cyclopropane-1-carboxamide], the concentration giving a half-maximal response (EC50) was in the range of 1 to 10 nM. The value for `O=C(Nc1cc(NCc2cn3cc(C4CC4)ccc3n2)ncn1)[C@H]1C[C@@H]1c1n[nH]c2ccc(Cl)cc12` (racemic) [Example I-191, rac-(1S*,2S*)-2-(5-chloro-1H-indazol-3-yl)-N-(6-(((6-cyclopropylimidazo[1,2-a]pyridin-2-yl)methyl)amino)pyrimidin-4-yl)cyclopropane-1-carboxamide] was greater than 6000 nM. The value for `Cc1ccnc([C@H]2C[C@@H]2C(=O)Nc2cc(OC(C)c3cn4cc(C5CC5)cc(N5CC(=O)N(C)C5=O)c4n3)c(C)nn2)n1` (stereo partly drawn) [Example 35, (1S,2S)-N-(5-(1-(6-cyclopropyl-8-(3-methyl-2,4-dioxoimidazolidin-1-yl)imidazo[1,2-α]pyridin-2-yl)ethoxy)-6-methylpyridazin-3-yl)-2-(4-methylpyrimidin-2-yl)cyclopropane-1-carboxamide] was less than 1 nM; that for `COCc1nc(NC(=O)[C@H]2C[C@@H]2c2nccc(C)n2)cc(N[C@H](C)c2cn3cc(C)cc(N4CC(=O)N(C)C4=O)c3n2)n1` [Example 438, (1S,2S)-N-(2-(methoxymethyl)-6-(((R)-1-(6-methyl-8-(3-methyl-2,4-dioxoimidazolidin-1-yl)imidazo[1,2-a]pyridin-2-yl)ethyl)amino)pyrimidin-4-yl)-2-(4-methylpyrimidin-2-yl)cyclopropane-1-carboxamide] was less than 1 nM; that for `O=C(Nc1cc(NCc2cn3cc(C4CC4)ccc3n2)ncn1)[C@H]1C[C@@H]1c1cc(Cl)ccc1C(F)(F)F` (racemic) [Example 52, rac-(1S*,2S*)-2-(5-chloro-2-(trifluoromethyl)phenyl)-N-(6-(((6-cyclopropylimidazo[1,2-α]pyridin-2-yl)methyl)amino)pyrimidin-4-yl)cyclopropane-1-carboxamide] was 100 to 1000 nM.

Regarding `Cc1ccnc([C@H]2C[C@@H]2C(=O)Nc2cc(N[C@H](C)c3cn4cc(Cl)cc(N5CC(=O)N(C)C5=O)c4n3)ncn2)n1` [Example 421, (1S,2S)-N-(6-(((R)-1-(6-chloro-8-(3-methyl-2,4-dioxoimidazolidin-1-yl)imidazo[1,2-a]pyridin-2-yl)ethyl)amino)pyrimidin-4-yl)-2-(4-methylpyrimidin-2-yl)cyclopropane-1-carboxamide], the EC50 is less than 1 nM.
